In US10023570B2 (Array BioPharma, Inc., priority 2015, dated 2018):
pIC50: −log10 of the molar value. Structures can show the parent of a compound that is named as a salt.

Biological target: human KDR protein in HEK-293 cells (Homo sapiens (Human), UniProt P35968)
Experiment: KDR Cell Assay (phospho-KDR in HEK-293 cells expressing inducible KDR)
Format: cell-based
Details: pKDR Cell HEK 10% FBS IC50, HEK-293 cells expressing inducible KDR, VEGF stimulated
Procedure, shortened: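 HEK-293 cells with inducible human KDR were treated with compound for 1 h in DMEM (0.25% DMSO final), then lysed. Phospho-KDR was quantified by Meso Scale immunoassay, expressed as percent of control, and IC50 taken where a 4-parameter logistic fit crossed 50 POC.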

human KDR protein in HEK-293 cells, sequence (P35968 20-1356): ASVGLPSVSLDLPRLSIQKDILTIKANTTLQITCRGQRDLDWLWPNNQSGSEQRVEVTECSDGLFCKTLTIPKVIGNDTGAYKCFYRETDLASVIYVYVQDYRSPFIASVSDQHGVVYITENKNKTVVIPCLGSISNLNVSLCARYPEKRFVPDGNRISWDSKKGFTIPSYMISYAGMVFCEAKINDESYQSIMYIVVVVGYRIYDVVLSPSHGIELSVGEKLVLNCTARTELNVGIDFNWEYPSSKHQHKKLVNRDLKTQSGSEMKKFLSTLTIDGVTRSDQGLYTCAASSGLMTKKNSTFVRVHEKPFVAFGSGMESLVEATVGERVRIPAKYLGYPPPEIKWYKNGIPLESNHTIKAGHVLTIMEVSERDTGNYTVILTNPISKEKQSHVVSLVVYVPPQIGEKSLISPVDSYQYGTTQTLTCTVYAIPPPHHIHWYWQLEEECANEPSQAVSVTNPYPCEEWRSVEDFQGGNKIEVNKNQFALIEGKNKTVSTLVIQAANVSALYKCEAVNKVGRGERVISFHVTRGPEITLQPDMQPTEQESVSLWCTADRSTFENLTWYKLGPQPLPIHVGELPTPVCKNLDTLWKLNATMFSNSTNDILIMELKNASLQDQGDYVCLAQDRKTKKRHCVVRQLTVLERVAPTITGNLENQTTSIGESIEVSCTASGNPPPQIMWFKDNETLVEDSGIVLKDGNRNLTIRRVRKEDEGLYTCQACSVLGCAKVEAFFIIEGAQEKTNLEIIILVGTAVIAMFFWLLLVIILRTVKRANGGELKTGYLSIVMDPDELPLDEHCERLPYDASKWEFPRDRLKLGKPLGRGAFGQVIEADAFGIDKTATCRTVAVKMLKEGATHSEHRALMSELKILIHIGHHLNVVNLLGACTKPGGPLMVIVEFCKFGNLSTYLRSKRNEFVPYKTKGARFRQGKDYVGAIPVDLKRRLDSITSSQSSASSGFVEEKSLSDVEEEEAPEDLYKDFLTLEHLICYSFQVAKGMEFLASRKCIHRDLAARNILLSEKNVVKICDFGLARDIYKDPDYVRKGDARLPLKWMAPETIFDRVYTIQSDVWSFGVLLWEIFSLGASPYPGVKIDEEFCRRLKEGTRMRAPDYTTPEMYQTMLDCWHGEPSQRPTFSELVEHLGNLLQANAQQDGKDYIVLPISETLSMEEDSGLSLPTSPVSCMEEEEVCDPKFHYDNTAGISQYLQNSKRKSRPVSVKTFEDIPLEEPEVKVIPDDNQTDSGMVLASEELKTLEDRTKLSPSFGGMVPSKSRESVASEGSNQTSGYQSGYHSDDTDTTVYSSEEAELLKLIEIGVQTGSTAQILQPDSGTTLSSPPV

pIC50 | Compound
5.74 | Cn1cc(-c2cc(-c3ccc(N4CCN(C(=O)[C@@H](CO)c5ccccc5)CC4)nc3)c3c(C#N)cnn3c2)cn1 [Example 373, (R)-4-(6-(4-(3-hydroxy-2-phenylpropanol)piperazin-1-yl)pyridin-3-yl)-6-(1-methyl-1H-pyrazol-4-yl)pyrazolo[1,5-a]pyridine-3-carbonitrile]
6.02 | CC(C)C1CCN(C(=O)N2CCN(c3ccc(-c4cc(-c5cnn(C)c5)cn5ncc(C#N)c45)cn3)CC2)C1 (centres unmarked) [Example 390, 4-(6-(4-(3-isopropylpyrrolidine-1-carbonyl)piperazin-1-yl)pyridin-3-yl)-6-(1-methyl-1H-pyrazol-4-yl)pyrazolo[1,5-a]pyridine-3-carbonitrile]
6.25 | Cn1cc(-c2cc(-c3ccc(C4CCN(Cc5ccccc5)C4)nc3)c3c(C#N)cnn3c2)cn1 (centres unmarked) [Example 582, 4-(6-(1-benzylpyrrolidin-3-yl)pyridine-3-yl)-6-(1-methyl-1H-pyrazol-4-yl)pyrazolo[1,5-a]pyridine-3-carbonitrile]
5.82 | CCOCCN1CCN(c2ccc(-c3cc(-c4cnn(C)c4)cn4ncc(C#N)c34)cn2)CC1 [Example 397, 4-(6-(4-(2-ethoxyethyl)piperazin-1-yl)pyridin-3-yl)-6-(1-methyl-1H-pyrazol-4-yl)pyrazolo[1,5-a]pyridine-3-carbonitrile]

Same assay, conditions: pKDR Cell HEK 10% FBS IC50, HEK-293 cells expressing inducible KDR, VEGF stimulated, 10% FBS

Compound | pIC50
CCN(CC)C(C(=O)N1CCN(c2ccc(-c3cc(-c4cnn(C)c4)cn4ncc(C#N)c34)cn2)CC1)c1ccccc1 (centres unmarked) [Example 364, 4-(6-(4-(2-(diethylamino)-2-phenylacetyl)piperazin-1-yl)pyridin-3-yl)-6-(1-methyl-1H-pyrazol-4-yl)pyrazolo[1,5-a]pyridine-3-carbonitrile bis(2,2,2-trifluoroacetate)] | 5.36
Cn1cc(-c2cc(-c3ccc(N4CCN(C(=O)C[C@H](N)c5ccccc5)CC4)nc3)c3c(C#N)cnn3c2)cn1 [Example 23, (S)-4-(6-(4-(3-amino-3-phenylpropanoyl)piperazin-1-yl)pyridin-3-yl)-6-(1-methyl-1H-pyrazol-4-yl)pyrazolo[1,5-a]pyridine-3-carbonitrile dihydrochloride] | 7.34
Cn1cc(-c2cc(-c3ccc(N4CCN(C(=O)c5cc(C6CC6)[nH]n5)CC4)nc3)c3c(C#N)cnn3c2)cn1 [Example 370, 4-(6-(4-(5-cyclopropyl-1H-pyrazole-3-carbonyl)piperazin-1-yl)pyridin-3-yl)-6-(1-methyl-1H-pyrazol-4-yl)pyrazolo[1,5-a]pyridine-3-carbonitrile bis(2,2,2-trifluoroacetate)] | 7.53
Cn1cc(-c2cc(-c3ccc(N4CC[C@H](C(=O)NCCC(F)(F)F)C4)nc3)c3c(C#N)cnn3c2)cn1 [Example 262, (S)-1-(5-(3-cyano-6-(1-methyl-1H-pyrazol-4-yl)pyrazolo[1,5-a]pyridin-4-yl)pyridin-2-yl)-N-(3,3,3-trifluoropropyl)pyrrolidine-3-carboxamide] | 6.21
Cn1cc(-c2cc(-c3ccc(N4CCN(C[C@H](O)c5ccccc5)CC4)nc3)c3c(C#N)cnn3c2)cn1 [Example 161, (R)-4-(6-(4-(2-hydroxy-2-phenylethyl)piperazin-1-yl)pyridin-3-yl)-6-(1-methyl-1H-pyrazol-4-yl)pyrazolo[1,5-a]pyridine-3-carbonitrile] | 7.31
C[C@H]([C@H](O)c1ccccc1)N1CCN(c2ccc(-c3cc(-c4cnn(C)c4)cn4ncc(C#N)c34)cn2)CC1 [Example 147, 4-(6-(4-((1R,2R)-1-hydroxy-1-phenylpropan-2-yl)piperazin-1-yl)pyridin-3-yl)-6-(1-methyl-1H-pyrazol-4-yl)pyrazolo[1,5-a]pyridine-3-carbonitrile] | 5.89
Cn1cc(-c2cc(-c3ccc(N4CCN(C(=O)NCc5ccccc5)CC4)nc3)c3c(C#N)cnn3c2)cn1 [Example 129, N-benzyl-4-(5-(3-cyano-6-(1-methyl-1H-pyrazol-4-yl)pyrazolo[1,5-a]pyridin-4-yl)pyridin-2-yl)piperazine-1-carboxamide] | 7.03
Cn1cc(-c2cc(-c3cnc(N4CCN(C(=O)[C@H](O)c5ccccc5)CC4)cn3)c3c(C#N)cnn3c2)cn1 [Example 288, (R)-4-(5-(4-(2-hydroxy-2-phenylacetyl)piperazin-1-yl)pyrazin-2-yl)-6-(1-methyl-1H-pyrazol-4-yl)pyrazolo[1,5-a]pyridine-3-carbonitrile] | 5.71
Cn1ccc(-c2cc(-c3ccc(N4CCN(C(=O)[C@H](O)c5ccccc5)CC4)nc3)c3c(C#N)cnn3c2)n1 [Example 272, (R)-4-(6-(4-(2-hydroxy-2-phenylacetyl)piperazin-1-yl)pyridin-3-yl)-6-(1-methyl-1H-pyrazol-3-yl)pyrazolo[1,5-a]pyridine-3-carbonitrile] | 6.24

Second part, the compound after the results:

pIC50 | Compound
6.22 | Cn1cc(-c2cc(-c3ccc(N4CCC5(CC4)CN(C(=O)OC(C)(C)C)C5)nc3)c3c(C#N)cnn3c2)cn1 [Example 214, tert-butyl 7-(5-(3-cyano-6-(1-methyl-1H-pyrazol-4-yl)pyrazolo[1,5-a]pyridin-4-yl)pyridin-2-yl)-2,7-diazaspiro[3.5]nonane-2-carboxylate]
6.07 | Cn1cc(-c2cc(-c3ccc(N4CCN(C(=O)N5CC[C@@H](F)C5)CC4)nc3)c3c(C#N)cnn3c2)cn1 [Example 103, (R)-4-(6-(4-(3-fluoropyrrolidine-1-carbonyl)piperazin-1-yl)pyridin-3-yl)-6-(1-methyl-1H-pyrazol-4-yl)pyrazolo[1,5-a]pyridine-3-carbonitrile]
5.75 | Cn1cc(-c2cc(-c3ccc(N4CCN(C(=O)C5(C(F)(F)F)CC5)CC4)nc3)c3c(C#N)cnn3c2)cn1 [Example 346, 6-(1-methyl-1H-pyrazol-4-yl)-4-(6-(4-(1-(trifluoromethyl)cyclopropanecarbonyl)piperazin-1-yl)pyridin-3-yl)pyrazolo[1,5-a]pyridine-3-carbonitrile]
6.00 | Cn1cc(-c2cc(-c3ccc(N4CCN(C(=O)CC5CCOCC5)CC4)nc3)c3c(C#N)cnn3c2)cn1 [Example 76, 6-(1-methyl-1H-pyrazol-4-yl)-4-(6-(4-(2-(tetrahydro-2H-pyran-4-yl)acetyl)piperazin-1-yl)pyridin-3-yl)pyrazolo[1,5-a]pyridine-3-carbonitrile]
5.65 | CN1CCN(C(=O)N2CCN(c3ccc(-c4cc(-c5cnn(C)c5)cn5ncc(C#N)c45)cn3)CC2)CC1 [Example 120, 6-(1-methyl-1H-pyrazol-4-yl)-4-(6-(4-(4-methylpiperazine-1-carbonyl)piperazin-1-yl)pyridin-3-yl)pyrazolo[1,5-a]pyridine-3-carbonitrile]
6.30 | Cn1cc(-c2cc(-c3ccc(N4CCN(C(=O)Cc5cccnc5)CC4)nc3)c3c(C#N)cnn3c2)cn1 [Example 71, 6-(1-methyl-1H-pyrazol-4-yl)-4-(6-(4-(2-(pyridin-3-yl)acetyl)piperazin-1-yl)pyridin-3-yl)pyrazolo[1,5-a]pyridine-3-carbonitrile]
6.59 | CC(C)OC(=O)N1CC2(CCN(c3ccc(-c4cc(-c5cnn(C)c5)cn5ncc(C#N)c45)cn3)CC2)C1 [Example 222, isopropyl 7-(5-(3-cyano-6-(1-methyl-1H-pyrazol-4-yl)pyrazolo[1,5-a]pyridin-4-yl)pyridin-2-yl)-2,7-diazaspiro[3.5]nonane-2-carboxylate]
